In ChEMBL document CHEMBL4376832, “Changing the Rules of TB-Drug Discovery” (J Med Chem, 2019):
Converted amounts (≈) assume the structure as drawn.

Legend:
[1] = tested on: Mycobacterium tuberculosis; assay: Antimycobacterial against GFP-transfected Mycobacterium tuberculosis H37Rv assessed as reduction in GFP protein expression and measured every 2 days for 12 days; assay type: functional
[2] = Inhibition of Mycobacterium phlei DSM-43239 C-terminal ATP-synthase assessed as reduction in luciferase activity incubated for 10 mins in presence of ATP by luminometric method; design: species or system Mycolicibacterium phlei DSM 43239 = CCUG 21000
[3] = Inhibition of ATP-synthase (unknown origin); design: species or system Homo sapiens

SMILES | MIC [1] | IC50 [2] | IC50 [3]
COc1ccc(S(=O)(=O)N2CCCCCC2)cc1NC(=O)Cc1nnc(O)c2ccccc12 | 250 µM (≈ 118 µg/mL) |  | 
COc1nc2ccc(Br)cc2cc1[C@@H](c1ccccc1)[C@@](O)(CCN(C)C)c1cccc2ccccc12 [BEDAQUILINE] |  | 20 to 25 nM | > 200 µM
